Among the data in ChEMBL document CHEMBL1130012 (J Med Chem, 1997) are Ki values, retold here.

The target in experiment [1] is T1, Muscarinic acetylcholine receptor M2 (Rattus norvegicus, UniProt P10980).
T1 sequence (P10980 whole entry): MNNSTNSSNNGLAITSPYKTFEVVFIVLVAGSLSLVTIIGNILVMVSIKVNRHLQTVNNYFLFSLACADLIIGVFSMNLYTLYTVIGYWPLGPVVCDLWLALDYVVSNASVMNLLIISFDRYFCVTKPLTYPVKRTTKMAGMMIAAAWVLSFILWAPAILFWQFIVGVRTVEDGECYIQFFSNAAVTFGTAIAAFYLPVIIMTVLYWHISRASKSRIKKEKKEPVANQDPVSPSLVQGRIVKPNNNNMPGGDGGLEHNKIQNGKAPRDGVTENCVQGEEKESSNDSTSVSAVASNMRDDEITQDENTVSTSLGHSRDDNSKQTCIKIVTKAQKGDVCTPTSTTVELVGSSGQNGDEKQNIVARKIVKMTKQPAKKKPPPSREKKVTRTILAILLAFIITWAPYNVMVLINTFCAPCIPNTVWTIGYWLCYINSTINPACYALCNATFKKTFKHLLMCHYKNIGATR
As to the kind of experiment: Binding affinity towards rat Muscarinic acetylcholine receptor M2 was determined.

In experiment [2] the target is T2, Muscarinic acetylcholine receptor M1 (Rattus norvegicus, UniProt P08482).
T2 sequence (P08482 whole entry): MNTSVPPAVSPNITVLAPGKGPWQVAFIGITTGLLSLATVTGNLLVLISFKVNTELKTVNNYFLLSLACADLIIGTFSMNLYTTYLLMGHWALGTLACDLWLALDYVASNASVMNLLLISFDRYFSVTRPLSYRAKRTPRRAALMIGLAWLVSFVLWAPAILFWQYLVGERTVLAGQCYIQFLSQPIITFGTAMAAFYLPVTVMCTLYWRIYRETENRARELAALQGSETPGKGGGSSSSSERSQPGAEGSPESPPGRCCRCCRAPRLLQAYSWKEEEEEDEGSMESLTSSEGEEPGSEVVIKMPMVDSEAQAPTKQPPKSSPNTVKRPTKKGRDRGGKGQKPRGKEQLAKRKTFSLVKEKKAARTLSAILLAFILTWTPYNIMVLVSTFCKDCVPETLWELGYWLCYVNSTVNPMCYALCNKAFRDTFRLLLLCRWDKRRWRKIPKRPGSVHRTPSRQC
As to the kind of experiment: Binding affinity towards rat Muscarinic acetylcholine receptor M1 was determined.

Experiment [3] concerns the target Muscarinic acetylcholine receptor M3 (Rattus norvegicus) (UniProt P08483). As to the kind of experiment: Binding affinity towards Muscarinic acetylcholine receptor M3 was determined in rat pancreas.

By Ki is commonly meant the equilibrium dissociation constant of an inhibitor or competing ligand from its target.

Sequence of Muscarinic acetylcholine receptor M3 (Rattus norvegicus) (P08483 whole entry, looked up): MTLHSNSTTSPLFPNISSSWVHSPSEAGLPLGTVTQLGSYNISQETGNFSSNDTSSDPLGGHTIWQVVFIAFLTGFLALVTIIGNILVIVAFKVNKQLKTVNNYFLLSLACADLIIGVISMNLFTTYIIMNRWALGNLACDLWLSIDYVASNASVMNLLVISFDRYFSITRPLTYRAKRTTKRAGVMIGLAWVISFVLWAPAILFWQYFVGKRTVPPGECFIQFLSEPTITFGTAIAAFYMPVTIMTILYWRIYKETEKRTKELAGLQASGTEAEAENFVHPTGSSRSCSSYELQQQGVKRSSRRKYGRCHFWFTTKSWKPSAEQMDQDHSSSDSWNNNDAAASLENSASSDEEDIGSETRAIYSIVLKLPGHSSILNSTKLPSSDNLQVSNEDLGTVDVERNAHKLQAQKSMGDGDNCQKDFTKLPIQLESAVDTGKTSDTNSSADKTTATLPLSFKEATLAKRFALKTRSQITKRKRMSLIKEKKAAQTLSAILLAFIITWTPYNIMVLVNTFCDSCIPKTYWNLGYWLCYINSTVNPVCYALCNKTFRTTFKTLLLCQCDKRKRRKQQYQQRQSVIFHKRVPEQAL

For the compound `C[N+]12CCC(CC1)[C@@H](OC(=O)C(O)(c1ccccc1)c1ccccc1)C2`, the results for the inhibition constant (Ki) in experiment [1], in experiment [2] and in experiment [3] were 0.43 nM, 0.13 nM and 0.65 nM, respectively.
